Measurements: patent US12030876B2, “Aryl hydrocarbon receptor (AHR) agonists and uses thereof” (Ikena Oncology, Inc., priority 2019, dated 2024)
Read-outs that look alike come from different tables or passages of the source.

Legend:
[1] = target: T1, AHR (Homo sapiens, UniProt P35869); experiment: DRE-Luciferase Reporter Assay, HepG2 (agonist); type: cell-based; conditions: read-out: DRE-Luc HepG2 - Agonist: Average EC50
T1 construct: endogenous in cells; host or cells: HepG2 (human), transfected with a DRE-luciferase reporter only
T1 sequence (P35869 11-848): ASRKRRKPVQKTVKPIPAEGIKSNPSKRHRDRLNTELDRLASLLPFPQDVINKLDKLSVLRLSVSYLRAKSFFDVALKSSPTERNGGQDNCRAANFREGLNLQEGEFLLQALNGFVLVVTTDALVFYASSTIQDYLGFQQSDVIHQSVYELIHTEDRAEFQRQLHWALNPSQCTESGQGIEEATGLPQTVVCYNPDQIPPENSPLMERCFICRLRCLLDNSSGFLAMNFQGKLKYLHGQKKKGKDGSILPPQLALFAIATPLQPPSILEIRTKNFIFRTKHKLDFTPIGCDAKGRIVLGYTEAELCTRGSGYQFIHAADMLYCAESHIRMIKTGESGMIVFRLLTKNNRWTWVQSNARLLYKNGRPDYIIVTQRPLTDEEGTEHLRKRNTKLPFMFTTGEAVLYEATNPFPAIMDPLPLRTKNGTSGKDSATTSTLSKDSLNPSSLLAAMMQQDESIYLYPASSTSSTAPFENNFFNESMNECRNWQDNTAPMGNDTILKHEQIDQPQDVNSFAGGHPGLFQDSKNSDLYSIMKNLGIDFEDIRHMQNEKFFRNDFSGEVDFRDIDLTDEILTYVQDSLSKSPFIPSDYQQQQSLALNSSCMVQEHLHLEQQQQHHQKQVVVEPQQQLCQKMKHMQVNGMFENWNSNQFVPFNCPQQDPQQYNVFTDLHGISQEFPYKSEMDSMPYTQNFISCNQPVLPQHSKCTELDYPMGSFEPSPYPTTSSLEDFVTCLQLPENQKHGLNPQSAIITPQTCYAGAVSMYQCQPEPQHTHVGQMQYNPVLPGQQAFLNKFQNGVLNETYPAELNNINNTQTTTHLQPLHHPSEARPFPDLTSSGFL
Method in brief: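 Cells carrying a stably or transiently transfected DRE-luciferase reporter, plated overnight at 37 C, then given agonist for 6, 16 or 24 h before lysis and luciferase read-out. Signal scaled between no ligand (minimum) and activating ligand alone, e.g. TCDD (maximum); EC50 = concentration giving half-maximal luciferase activity.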

[2] = target: T2, AHR (Mus musculus, UniProt P30561); experiment: P450 CYP1A1 Luciferase Assay, Hepa1.6 (agonist); type: cell-based, murine; conditions: Hepa1.6, Table 2
T2 sequence (P30561 1-848 F348L/P471L): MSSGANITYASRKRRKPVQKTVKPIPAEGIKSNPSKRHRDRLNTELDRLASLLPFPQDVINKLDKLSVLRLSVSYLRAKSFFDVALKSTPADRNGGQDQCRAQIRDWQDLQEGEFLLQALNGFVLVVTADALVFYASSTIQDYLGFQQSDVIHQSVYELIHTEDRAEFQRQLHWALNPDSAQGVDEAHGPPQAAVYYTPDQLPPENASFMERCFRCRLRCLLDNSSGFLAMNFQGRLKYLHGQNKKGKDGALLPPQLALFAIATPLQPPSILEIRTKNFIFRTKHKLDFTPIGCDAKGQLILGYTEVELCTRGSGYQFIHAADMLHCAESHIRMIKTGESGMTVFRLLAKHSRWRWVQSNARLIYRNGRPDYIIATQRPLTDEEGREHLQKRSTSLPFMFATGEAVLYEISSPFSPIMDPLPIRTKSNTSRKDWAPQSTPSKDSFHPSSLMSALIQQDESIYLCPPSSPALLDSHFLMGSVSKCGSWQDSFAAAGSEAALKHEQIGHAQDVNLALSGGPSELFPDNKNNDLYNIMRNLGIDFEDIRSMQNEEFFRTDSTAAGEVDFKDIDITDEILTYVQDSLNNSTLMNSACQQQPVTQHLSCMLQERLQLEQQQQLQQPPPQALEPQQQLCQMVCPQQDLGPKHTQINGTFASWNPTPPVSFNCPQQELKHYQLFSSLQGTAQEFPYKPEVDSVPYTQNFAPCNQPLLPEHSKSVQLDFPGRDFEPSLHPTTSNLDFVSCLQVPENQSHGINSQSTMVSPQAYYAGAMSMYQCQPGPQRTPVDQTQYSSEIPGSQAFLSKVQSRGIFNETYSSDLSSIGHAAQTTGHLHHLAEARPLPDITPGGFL
Experimental: P450 CYP1A1 Luciferase Assay
AHR binds to Dioxin Responsive Elements (DRE) upstream of genes that it activates. One measure of AHR activity is P450 CYP1A1 protein levels determined by measuring CYP1A1 enzyme activity using a luminogenic CYP1A1 luciferin-based substrate. Luciferase activity will reflect CYP1A1 activity resulting from activation of AHR in the cells.
Murine Hepa1-6 or Hepa-1c1c7 or other murine cell line, human HepG2 or other human cell line are plated in media (96-well, 384-well or other plates) and incubated overnight at 37 C in a CO2 incubator.
(§1) The next day, an AHR agonist compound is added. Cells are incubated for 6, 16 or 24 hours or another time point and then lysed and incubated with a CYP1A1 luciferase-based substrate (e.g. Luciferin-CEE) for 3, 6, or 12 hours of another time point. Determination of luciferase activity as a read-out of CYP1A1 enzyme activity can be measured with a commercial kit such as the Promega P450 Glo CYP1A1 detection reagent or any kit or reagents that provide for measuring luciferase activity. The level of luciferase with only activating ligand (e.g. such as TCDD, kynurenine, ITE (2-(1H-indole-3-ylcarbonyl)-4-thiazolecarboxylic methyl ester), VAF347, BNF (beta-naphthoflavone), ICZ (6-formylindolo(3,2-b) carbazole or other AHR ligands) added is the maximum signal while the luciferase with no ligand is the minimum signal. EC50s can be determined as the concentration which activates half of the maximum luciferase activity.

[3] = tested on: DSS model of Inflammatory Bowel Disease (IBD); type: in vivo, C57Bl/6 mice
Experimental: On study day −1, C57Bl/6 mice are weighed and randomized into treatment groups based on body weight. On study day 0, treatment groups are given 2.5% DSS in drinking water and treatment is initiated on the same day, with either vehicle or AHR agonist compound(s). On study day 7, DSS drinking water is replaced with normal drinking water for the remainder of the study. Body weight is measured daily during the entire study. On study day 10, animals are anesthetized with Isoflurane and bled to exsanguination followed by cervical dislocation. The entire colon is removed and measured for length, weight, and weight per length. Overall efficacy of test AR agonist compounds is based on body weight, colon length, and colon histopathology. Histopathology data is assessed for appropriate parameters, as determined by a pathologist and the parameters for these DSS studies can include inflammation, erosion, gland loss, edema, hyperplasia, neutrophil count, mucosal thickening, lymphoid aggregate count and lymphoid aggregate size. The different parameter scores can be added for a summed score for the study histopathology.

[4] = target: T2, AHR; experiment: DRE-Luciferase Reporter Assay, Hepa1.6 (agonist); type: cell-based, murine; conditions: Hepa1.6, Table 3; read-out: DRE-Luc Hepa1.6 - Agonist: Average EC50
Experimental: DRE-Luciferase Reporter Assay
AHR binds to Dioxin Responsive Elements (DRE) upstream of genes that it activates. One measure of AHR activity is activation of a reporter gene, such as luciferase, downstream of one or multiple DRE elements. Luciferase activity reflects activation and inhibition of AHR in the cells expressing this reporter.
Murine Hepa1-6 or Hepa-1c1c7 or other murine cell line with a DRE-luciferase reporter either stably or transiently transfected are plated in media in plates (96-well, 384-well or other plates) and incubated overnight at 37 C in a CO2 incubator. Likewise, human HepG2 or other human cell line with a DRE-luciferase reporter either stably or transiently transfected are plated in media in plates (96-well, 384-well or other plates) and incubated overnight at 37 C in a CO2 incubator.
as §1, with “lysed” for “lysed and incubated with a CYP1A1 luciferase-based substrate (e.g. Luciferin-CEE)”, “determination” for “3, 6, or 12 hours of another time point. Determination”, “the AHR activation. Luciferase” for “CYP1A1 enzyme activity”, “Luciferase kit” for “P450 Glo CYP1A1 detection reagent”, “provide the luciferin substrate” for “provide”

[5] = tested on: Cyp1a1 gene expression; set-up: species or system C57BL/6N mice; conditions: mouse, in vivo
Experimental: C57BL/6N mice are weighed and randomized into treatment groups with group size of 3-5 mice. On study Day 1, treatment is initiated and necropsies follow on day 1 at 4 and 12 hours post-dose and on Day 2, 24 hours post-dose. On Day 1, mice are dosed orally with one dose of the AHR agonist compound(s) that are in a suspension and mixed well before dosing. At the designated time, animals are euthanized and plasma and tissue taken for compound levels (PK) and compound effect (PD) on gene expression. Liver samples and proximal colon are weighed and then frozen for subsequent RNA extraction and RT-PCR analysis. AHR activation is determined by measuring Cyp1a1 gene expression relative to a housekeeping gene, such as GAPDH or HPRT. Cyp1a1 expression levels in the liver are compared to Cyp1a1 levels in the colon to determine a colon:liver ratio to determine the level of GI preferred AHR activation.

FC(F)(F)c1cccc(Nc2nc(-c3cccc(/N=N/c4cccc(-c5csc(Nc6cccc(C(F)(F)F)c6)n5)c4)c3)cs2)c1 [I-41]
EC50 ([1]; HepG2, Table 2): 100 to 1000 nM | EC50 [2]: > 1000 nM | histology evaluation of inflammation ([3]; DSS model, compared with ITE administration, FIG. 8): comparable activity

O=C(O)c1cccc(/N=N/c2cccc(-c3csc(Nc4cccc(C(F)(F)F)c4)n3)c2)c1 [I-161]
EC50 ([1]; HepG2, Table 3): 100 to 1000 nM | EC50 [4]: > 1000 nM | Cyp1a1 induction in the colon ([5]; C57BL/6N, po): Cyp1a1 induction in the colon at low doses | Cyp1a1 induction in the colon [5]: comparable | Cyp1a1 induction in the liver [5]: significantly less induction | colon:liver ratio of Cyp1a1 expression [5]: colon-preferred activity | inflammation and erosion (histopathology) ([3]; DSS model, relative to vehicle control, FIG. 6, FIG. 19): reduced inflammation and erosion | activity at all doses compared with CSA ([3]; DSS model, FIG. 18B): comparable or better than CSA | histopathology data compared with CSA ([3]; DSS model, FIG. 18B): activity comparable to CSA | inflammation, edema, hyperplasia, and lymphoid aggregate size ([3]; DSS model, FIG. 19): reduction | efficacy in DSS IBD mouse model ([3]; FIGS. 18A-18B): demonstrates efficacy
